Test results published in ChEMBL document CHEMBL3108768 (ACS Med Chem Lett, 2014).

How the values were obtained:
[1] = (§1) Inhibition of STX (unknown origin)-induced toxicity in human HeLa cells assessed as protection against toxin-induced inhibition of protein biosynthesis by measuring incorporation of [14C]-leucine into cells preincubated for 1 hr followed by toxin challenge measured after 20 hrs by liquid scintillation counting analysis; format: cell-based
HeLa = assay: as §1, with “into cells at 30 uM preincubated for” for “into cells preincubated for”, “counting analysis relative to control” for “counting analysis”; format: cell-based

Row | Compound | EC50 [1] | fold change (FC) (HeLa)
1 | Cc1nc(-c2ccc([C@H]3N(C)c4ccc(F)cc4C(=O)N3c3ccccc3)s2)cs1 | 54 nM | 357
2 | Cc1nc(-c2ccc([C@@H]3N(C)c4ccc(F)cc4C(=O)N3c3ccccc3)s2)cs1 | 2400 nM | 68
3 | Cc1nc(-c2ccc(C3N(C)c4ccc(F)cc4C(=O)N3c3ccccc3)s2)cs1 (racemic) | 102 nM | –
4 | Cc1ccc(/C=N/c2ccccc2C(=O)Nc2ccccc2)s1 | 27000 nM | –
